For one test, the system named is HIF-1α. Nature of the test: Mouse tissue HIF Western blot analysis. The class given is in vivo. The method, then:
(§1) Mouse Ischemic Hindlimb Study
(§2) All animal work is conducted in accordance with the Guide for the Care and Use of Laboratory Animals (National Academy of Sciences; Copyright© 1996) and the Institutional Animal Care and Use Committee guidelines at Procter and Gamble Pharmaceuticals. We studied 9-10 week old male C57Bl/6 mice from Charles River Laboratory (Portage, Mich.). The mice are orally dosed with vehicle (aqueous carbonate buffer, 50 mM; pH 9.0) or compound 1 in vehicle at 50 mg/kg or 100 mg/kg. The animals are dosed three times: day 1 at 8 am and 5 pm, day 2 at 8 am. One hour after the first dose, unilateral arterial ligation is performed under anesthesia using isoflurane. The femoral artery is ligated proximal to the origin of the popliteal artery. The contralateral limb underwent a sham surgical procedure. Ligation is performed in an alternating fashion between right and left hindlimbs. Two hours after 8 am dosing on day 2, we obtained blood by ventricular stick while the mice are anesthetized with isoflurane. Serum samples for EPO analysis are obtained using gel clot serum separation tubes. Heart, liver, and gastrocnemius muscles are harvested, snap-frozen in liquid nitrogen, and stored in −80° C. until use.
Mouse Tissue HIF Western Blot Analysis
Tissues from mice stored at −80° C. are powdered with mortar and pestle chilled with liquid nitrogen. […]

For another test, the system named is EPO. Nature of the test: Mouse serum EPO assay (mouse ischemic hindlimb study). Format: in vivo. The method, then:
as §1, §2
The mouse serum EPO is detected using Mouse Quantikine Erythropoietin ELISA kit from R&D Systems according to manufacturer's instructions.

The target of test [1] is Full-length recombinant human EGLN-3 (His-MBP-TVMVEGLN-3 fusion) (Homo sapiens (Human), UniProt Q9H6Z9). Nature of the test: EGLN-3 enzyme activity assay (MALDI-TOF MS). The conditions noted are these: recombinant human EGLN-3 fusion; HIF-1α peptide 556-574 substrate; read-out: EGLIN3 IC50. The class given is biochemical. The method, then: Hydroxylated peptide product is identified from substrate by the gain of 16 Da. Data defined as percent conversion of substrate to product is analyzed in GraphPad Prism 4 to calculate IC50 values.
Chain of Full-length recombinant human EGLN-3 (His-MBP-TVMVEGLN-3 fusion) (Q9H6Z9 whole entry, the tested form may be a part): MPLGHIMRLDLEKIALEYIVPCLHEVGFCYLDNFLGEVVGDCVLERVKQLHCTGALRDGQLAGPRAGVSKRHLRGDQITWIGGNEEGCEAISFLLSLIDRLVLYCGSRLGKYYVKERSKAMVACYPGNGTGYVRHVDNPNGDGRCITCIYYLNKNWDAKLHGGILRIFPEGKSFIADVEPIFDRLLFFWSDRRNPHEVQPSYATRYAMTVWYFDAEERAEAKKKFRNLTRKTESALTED

For the compound `O=C(O)CNC(=O)c1ncc(-c2cccc(Cl)c2)cc1O` [{[5-(3-Chlorophenyl)-3-hydroxypyridine-2-carbonyl]amino}-acetic acid], the “stabilization of HIF-1α in mouse liver (immunoblot of nuclear extracts, FIG. 1)” value with HIF-1α was “stabilization of HIF-1α”. The “erythropoietin level versus vehicle in mouse serum (FIG. 2)” value in the test on EPO (mouse serum after oral dosing) is recorded as “elevated”.

Usually IC50 stands for the concentration at which inhibition is half-maximal. Turning to `O=C(O)CNC(=O)c1ncc(-c2ccc(Cl)cc2)cc1O` [{[5-(4-Chlorophenyl)-3-hydroxypyridine-2-carbonyl]amino}-acetic acid], the IC50 in test [1] came to 0.083 µM. Further, the EPO response result in the test on EPO (in vivo response, mouse serum EPO) is listed as “yes”.

These data come from patent US9598370B2, “Prolyl hydroxylase inhibitors and methods of use” (Akebia Therapeutics, Inc., priority 2006, dated 2017).
